# System: TIE-1
# Assay: minimum inhibitory concentration (MIC) of antibiotics for TIE-1
# Assay type: cell-based, Rhodopseudomonas palustris TIE-1
# Settings: resistance of TIE-1 to selection antibiotics; for MIC: Rhodopseudomonas palustris
Compound,MIC [µg/mL],minimum inhibitory concentration (MIC) [µg/mL]
O=C(N[C@H](CO)[C@H](O)c1ccc([N+](=O)[O-])cc1)C(Cl)Cl [chloramphenicol],100,–
NC[C@H]1O[C@H](O[C@H]2[C@H](O)[C@@H](O[C@H]3O[C@H](CO)[C@@H](O)[C@H](N)[C@H]3O)[C@H](N)C[C@@H]2N)[C@H](O)[C@@H](O)[C@@H]1O [kanamycin],50,–
gentamicin,–,200

# From patent US20240384226A1, “RHODOPSEUDOMONAS PALUSTRIS TIE-1 STRAINS AND METHODS FOR BIOPLASTIC PRODUCTION” (Washington University, priority 2023, published 2024)
